Test: xn = mol fraction of the nth substance listed
Conditions: 101.3 kPa, Liquid; for speed of sound: Sing-around technique in a fixed-path interferometer

CCOC(C)(C)C [2-ethoxy-2-methylpropane] + Cc1ccccc1
Conditions	mass density, 288.15 K [kg/m3]	mass density, 298.15 K [kg/m3]	mass density, 323.15 K [kg/m3]	speed of sound, 288.15 K [m/s]	speed of sound, 298.15 K [m/s]	speed of sound, 323.15 K [m/s]
x1 = 0.052	864.001	854.662	831.025	1332.1	1288.3	1181.6
x1 = 0.108	855.965	846.56	822.744	1315.2	1271.3	1164
x1 = 0.217	840.966	831.445	807.297	1282.6	1238.1	1130.6
x1 = 0.301	829.662	820.051	795.645	1258.9	1214.7	1106.5
x1 = 0.41	815.355	805.638	780.903	1228	1183.6	1075
x1 = 0.505	803.55	793.739	768.747	1202.7	1158.1	1049.3
x1 = 0.615	789.864	779.951	754.631	1173.5	1129.1	1019.7
x1 = 0.701	779.62	769.63	744.088	1151.5	1107	997.51
x1 = 0.805	767.503	757.422	731.601	1125.3	1080.5	970.75
x1 = 0.897	757.112	746.951	720.871	1102.8	1058.2	948.16
x1 = 0.95	751.062	740.859	714.65	1089.8	1045	934.78
x1 = 1	745.656	735.357	709.007	1078.9	1033.2	922.48

CCOC(C)(C)C [2-ethoxy-2-methylpropane] + c1ccccc1
Conditions	mass density, 288.15 K [kg/m3]	mass density, 298.15 K [kg/m3]	mass density, 323.15 K [kg/m3]	speed of sound, 288.15 K [m/s]	speed of sound, 298.15 K [m/s]	speed of sound, 323.15 K [m/s]
x1 = 0.049	874.335	863.764	837.01	1327.2	1280	1165.5
x1 = 0.102	864.201	853.699	827.068	1308.3	1261.4	1147.2
x1 = 0.204	846.222	835.811	809.343	1274.8	1228.3	1114.7
x1 = 0.299	830.929	820.575	794.184	1245.6	1199.4	1086.3
x1 = 0.393	816.969	806.647	780.301	1219.1	1173	1060
x1 = 0.494	802.925	792.628	766.309	1192.1	1146.5	1034.2
x1 = 0.589	790.686	780.408	754.084	1168.6	1123.6	1011.7
x1 = 0.696	777.916	767.647	741.314	1143.5	1099	988.29
x1 = 0.799	766.357	756.096	729.753	1120.3	1075.7	965.1
x1 = 0.906	755	744.747	718.393	1097.6	1053.3	942.92
x1 = 0.953	750.242	739.991	713.647	1087.8	1044	933.45
x1 = 1	745.656	735.357	709.007	1078.9	1033.2	922.48

From the NIST ThermoML archive (doi:10.1016/j.jct.2007.05.005)
